In patent publication US20240124444A1 (Celgene Corporation, priority 2020, published 2024):
Like-named read-outs stand apart in the source and are kept apart here.

Test system: C. parvum strain UGA1
Test: C. parvum growth inhibition assay (Nluc luminescence in HCT-8 cells)
Assay type: cell-based, Cryptosporidium parvum
Conditions: Cryptosporidium parvum; for EC50: HCT-8, 48 h, C. parvum growth inhibition in HCT-8 cells, 48 hours, 6 concentrations 10-0.04 μM; for inhibition at 1 µM / inhibition at 10 µM: HCT-8; for inhibition at 1 µM: read-out: % inh @ 1 uM C. parvum; for inhibition at 10 µM: read-out: % inh @ 10 uM C. parvum
Description: C. parvum GROWTH INHIBITION ASSAYS
C. parvum growth inhibition was performed as described in Hulverson M A, Vinayak S, Choi R, Schaefer D A, Castellanos-Gonzalez A, Vidadala R S R, Brooks C F, Herbert G T, Betzer D P, Whitman G R, Sparks H N, Arnold S L M, Rivas K L, Barrett L K, White A C Jr, Maly D J, Riggs M W, Striepen B, Van Voorhis W C, Ojo K K. Bumped-Kinase Inhibitors for Cryptosporidiosis Therapy. J Infect Dis. 2017 Apr. 15; 215(8):1275-1284.
C. parvum strain UGA1 […] (ATCC, Manassas, VA) were prepared as described below. HCT-8 cells were inoculated onto 96-well plates were grown for 48 hours to 90%-100% confluence. C. parvum oocysts were then incubated for 10 minutes in 10% bleach at room temperature and washed with Dulbecco's phosphate-buffered saline. One thousand oocysts per well were applied to plates with Roswell Park Memorial Institute 1640 (RPMI) medium supplemented with 10% horse serum and 1% penicillin/streptomycin. Compounds of Formula (I), Formula (II), and Formula (III) were added to the plates at different concentrations and the plates were incubated for 48 hours. Following the incubation, the monolayers were lysed for 1 hour before a luciferase reagent was added, and relative luminescence units were determined.
For certain compounds of Formula I, Formula II, and Formula III, EC50 values were calculated using curves calculated from Prism after analysis of C. parvum growth inhibition at 6 different concentrations: 10, 3.33, 1.11, 0.37, 0.12, and 0.04 μM. […] For certain compounds of Formula I, Formula II, and Formula III, single point inhibition values of 0-33% (activity level D), between 33% and 66% (activity level E), and between 67% and 100% (activity level F) are also shown in Table 1 below.

[1] = single point inhibition at 1 uM
[2] = single point inhibition at 10 uM
[3] = single point inhibition @ 10 uM

Row | Structure (SMILES) | EC50 | inhibition at 1 µM [1] | inhibition at 10 µM [2] | further results
1 | Cn1cnc(-c2cc3cnc(NC4CCOCC4)cc3n2C)c1 [Example 348, 1-methyl-2-(1-methyl-1H-imidazol-4-yl)-N-(tetrahydro-2H-pyran-4-yl)-1H-pyrrolo[3,2-c]pyridin-6-amine] | > 1 µM | – | – | –
2 | Cc1cc(-c2cc3cnc(NC(=O)C(C)(C)C)cc3[nH]2)ccn1 [Example 301, N-(2-(2-methylpyridin-4-yl)-1H-pyrrolo[3,2-c]pyridin-6-yl)pivalamide] | – | 0 to 33% | 0 to 33% | –
3 | Cc1ccnc(-c2cc3cnc(NC(=O)C4CC4)cc3n2C)c1 [Example 73, N-(1-methyl-2-(4-methylpyridin-2-yl)-1H-pyrrolo[3,2-c]pyridin-6-yl)cyclopropanecarboxamide] | > 1 µM | – | – | –
4 | Cn1cc(C(=O)Nc2cc3[nH]c(-c4ccnc(OCC(F)F)n4)cc3cn2)cn1 [Example 310, N-(2-(2-(2,2-difluoroethoxy)pyrimidin-4-yl)-1H-pyrrolo[3,2-c]pyridin-6-yl)-1-methyl-1H-pyrazole-4-carboxamide] | – | 0 to 33% | 0 to 33% | –
5 | COc1ccc(Nc2cc3c(cn2)cc(-c2cnn(C)c2)n3C)c(C)c1 [Example 258, N-(4-methoxy-2-methylphenyl)-1-methyl-2-(1-methyl-1H-pyrazol-4-yl)-1H-pyrrolo[3,2-c]pyridin-6-amine] | – | 0 to 33% | 0 to 33% | –
6 | CN(C)C(=O)Nc1cc2[nH]c(C(F)(F)F)cc2cn1 [Example 108, 1,1-dimethyl-3-(2-(trifluoromethyl)-1H-pyrrolo[3,2-c]pyridin-6-yl)urea] | > 1 µM | – | – | –
7 | Cn1c(-c2cccnc2)cc2cnc(Nc3cccc(-c4nc[nH]n4)c3)cc21 [Example 275, N-(3-(1H-1,2,4-triazol-3-yl)phenyl)-1-methyl-2-(pyridin-3-yl)-1H-pyrrolo[3,2-c]pyridin-6-amine] | – | 0 to 33% | 0 to 33% | –
8 | FC(F)(F)c1c[nH]c2cc(NC3CCOCC3)ncc12 [Example 376, N-(tetrahydro-2H-pyran-4-yl)-3-(trifluoromethyl)-1H-pyrrolo[3,2-c]pyridin-6-amine] | > 1 µM | – | – | –
9 | Cn1cc(C(=O)Nc2cc3c(cn2)cc(-c2ccnc(NCCC(F)(F)F)n2)n3C)cn1 [Example 133, 1-methyl-N-(1-methyl-2-(2-(3,3,3-trifluoropropylamino)pyrimidin-4-yl)-1H-pyrrolo[3,2-c]pyridin-6-yl)-1H-pyrazole-4-carboxamide] | – | – | – | inhibition at 1 µM (single point inhibition @ 1 uM): 0 to 33%; inhibition at 10 µM [3]: 67 to 100%
10 | Cc1cc(-c2cc3cnc(NC(=O)[C@H]4C[C@@H](O)C4)cc3[nH]2)ccn1 [Example 194, (1s,3s)-3-hydroxy-N-(2-(2-methypyridin-4-yl)-1H-pyrrolo[3,2-c]pyridin-6-yl)cyclobutanecarboxamide] | – | – | – | inhibition at 1 µM (single point inhibition @ 1 uM): 0 to 33%; inhibition at 10 µM [3]: 67 to 100%
11 | COc1nccc(-c2cc3cnc(NC(=O)c4cn(C)nc4C)cc3[nH]2)n1 [Example 250, N-(2-(2-methoxypyrimidin-4-yl)-1H-pyrrolo[3,2-c]pyridin-6-yl)-1,3-dimethyl-1H-pyrazole-4-carboxamide] | – | 0 to 33% | 0 to 33% | –
12 | COc1nccc(-c2cc3cnc(NC(=O)C4C5CCCC54)cc3[nH]2)n1 (stereo not shown) [Example 176, N-(2-(2-methoxypyrimidin-4-yl)-1H-pyrrolo[3,2-c]pyridin-6-yl)bicyclo[3.1.0]hexane-6-carboxamide] | – | – | – | inhibition at 1 µM (single point inhibition @ 1 uM): 0 to 33%; inhibition at 10 µM [3]: 67 to 100%
13 | Cc1cc(Nc2cc3[nH]c(-c4ccnc(C#N)c4)cc3cn2)cc(-n2cncn2)c1 [Example 339, 4-(6-(3-methyl-5-(1H-1,2,4-triazol-1-yl)phenylamino)-1H-pyrrolo[3,2-c]pyridin-2-yl)picolinonitrile] | – | 0 to 33% | 0 to 33% | –
14 | O=C(Nc1cc2[nH]c(C(F)(F)F)cc2cn1)C1CCCC1 [Example 111, N-(2-(trifluoromethyl)-1H-pyrrolo[3,2-c]pyridin-6-yl)cyclopentanecarboxamide] | > 1 µM | – | – | –
15 | Cn1cc(C(=O)Nc2cc3[nH]c(-c4ccnc(C(F)(F)F)n4)cc3cn2)cn1 [Example 287, 1-methyl-N-(2-(2-(trifluoromethyl)pyrimidin-4-yl)-1H-pyrrolo[3,2-c]pyridin-6-yl)-1H-pyrazole-4-carboxamide] | – | 0 to 33% | 0 to 33% | –
16 | Cc1cc(-c2cc3cnc(NC(=O)C(C)C)cc3[nH]2)ccn1 [Example 160, N-(2-(2-methylpyridin-4-yl)-1H-pyrrolo[3,2-c]pyridin-6-yl)isobutyramide] | – | – | – | inhibition at 1 µM (single point inhibition @ 1 uM): 0 to 33%; inhibition at 10 µM [3]: 67 to 100%
17 | Cc1cc(-c2cc3cnc(Nc4cccc(-c5nc[nH]n5)c4)cc3[nH]2)ccn1 [Example 66, N-(3-(1H-1,2,4-triazol-3-yl)phenyl)-2-(2-methylpyridin-4-yl)-1H-pyrrolo[3,2-c]pyridin-6-amine] | > 1 µM | – | – | inhibition at 1 µM (single point inhibition @ 1 uM): 67 to 100%; inhibition at 10 µM [3]: 67 to 100%
18 | Cc1ccc(-c2cc3cnc(NC4CCOCC4)cc3[nH]2)cc1 [Example 351, N-(tetrahydro-2H-pyran-4-yl)-2-p-tolyl-1H-pyrrolo[3,2-c]pyridin-6-amine] | > 1 µM | – | – | –
19 | O=C(Nc1cc2c(cn1)cc(C(F)(F)F)n2CCO)C1CC1 [Example 116, N-(1-(2-hydroxyethyl)-2-(trifluoromethyl)-1H-pyrrolo[3,2-c]pyridin-6-yl)cyclopropanecarobxamide] | > 1 µM | – | – | –
20 | Cn1cc(C(=O)Nc2cc3[nH]c(-c4ccnc(OCC(C)(C)C)n4)cc3cn2)cn1 [Example 319, 1-methyl-N-(2-(2-(neopentyloxy)pyrimidin-4-yl)-1H-pyrrolo[3,2-c]pyridin-6-yl)-1H-pyrazole-4-carboxamide] | – | 0 to 33% | 0 to 33% | –
21 | CCn1cc(C(=O)Nc2cc3[nH]c(-c4ccnc(OCC(F)(F)F)n4)cc3cn2)c(C)n1 [Example 242, 1-ethyl-3-methyl-N-(2-(2-(2,2,2-trifluoroethoxy)pyrimidin-4-yl)-1H-pyrrolo[3,2-c]pyridin-6-yl)-1H-pyrazole-4-carboxamide] | – | 0 to 33% | 0 to 33% | –
22 | CN1CCC(C(=O)Nc2cc3[nH]c(C(F)(F)F)cc3cn2)CC1 [Example 109, 1-methyl-N-(2-(trifluoromethyl)-1H-pyrrolo[3,2-c]pyridin-6-yl)piperidine-4-carboxamide] | > 1 µM | – | – | –
23 | Cc1cc(-c2[nH]c3cc(NC4CCOC4)ncc3c2C)ccn1 (stereo in doubt) [Example 368, (R)-3-methyl-2-(2-methylpyridin-4-yl)-N-(tetrahydrofuran-3-yl)-1H-pyrrolo[3,2-c]pyridin-6-amine] | > 1 µM | – | – | –
24 | Cc1nn(C)cc1C(=O)Nc1cc2[nH]c(-c3ccnc(OCC(F)(F)F)n3)cc2cn1 [Example 226, 1,3-dimethyl-N-(2-(2-(2,2,2-trifluoroethoxy)pyrimidin-4-yl)-1H-pyrrolo[3,2-c]pyridin-6-yl)-1H-pyrazole-4-carboxamide] | – | 0 to 33% | 33 to 66% | –
25 | Cc1cc(-c2cc3cnc(NS(=O)(=O)C4CC4)cc3[nH]2)ccn1 [Example 97, N-(2-(2-methylpyridin-4-yl)-1H-pyrrolo[3,2-c]pyridin-6-yl)cyclopropanesulfonamide] | > 1 µM | – | – | –
26 | CC(C)COc1nccc(-c2cc3cnc(NC(=O)c4cnn(C)c4)cc3[nH]2)n1 [Example 311, N-(2-(2-isobutoxypyrimidin-4-yl)-1H-pyrrolo[3,2-c]pyridin-6-yl)-1-methyl-1H-pyrazole-4-carboxamide] | – | 0 to 33% | 0 to 33% | –
27 | Cc1cc(-c2cc3cnc(NC(=O)N(C)C)cc3[nH]2)ccn1 [Example 291, 1,1-dimethyl-3-(2-(2-methylpyridin-4-yl)-1H-pyrrolo[3,2-c]pyridin-6-yl)urea] | – | 0 to 33% | 0 to 33% | –
28 | O=C(Nc1cc2[nH]c(-c3ccnc(OCCCF)n3)cc2cn1)c1cnn(CC2CCCO2)c1 (stereo in doubt) [Example 171, (S)-N-(2-(2-(3-fluoropropoxy)pyrimidin-4-yl)-1H-pyrrolo[3,2-c]pyridin-6-yl)-1-((tetrahydrofuran-2-yl)methyl)-1H-pyrazole-4-carboxamide] | – | – | – | inhibition at 1 µM (single point inhibition @ 1 uM): 0 to 33%; inhibition at 10 µM [3]: 67 to 100%
29 | COc1cc(Nc2cc3[nH]c(-c4ccncc4)cc3cn2)cc(-n2cncn2)c1 [Example 140, N-(3-methoxy-5-(1H-1,2,4-triazol-1-yl)phenyl)-2-(pyridin-4-yl)-1H-pyrrolo[3,2-c]pyridin-6-amine] | – | – | – | inhibition at 1 µM (single point inhibition @ 1 uM): 0 to 33%; inhibition at 10 µM [3]: 67 to 100%
